Where “and” joins values, the source holds several entries; their conditions need not be identical. Equal values may be shown once.
What was measured:
[1] = 298.15 K; 101.3 kPa; Liquid; Vibrating tube method
[2] = refractive index (Na D-line) (dimensionless); conditions: 298.15 K; 101.3 kPa; Liquid; Standard Abbe refractometry
[3] = relative permittivity at zero frequency (dimensionless); conditions: 298.15 K; 101.3 kPa; Liquid; Coaxial cylinder capacitor
[4] = xn = mol fraction of the nth substance listed; conditions: 298.15 K, 101.3 kPa, Liquid, Vibrating tube method
[5] = refractive index (Na D-line) (dimensionless); xn = mol fraction of the nth substance listed; conditions: 298.15 K, 101.3 kPa, Liquid, Standard Abbe refractometry
[6] = relative permittivity at zero frequency (dimensionless); xn = mol fraction of the nth substance listed; conditions: 298.15 K, 101.3 kPa, Liquid, Coaxial cylinder capacitor

CCCCO [butan-1-ol]
Conditions | mass density [kg/m3] | refractive index | relative permittivity at zero frequency
[1] | 805.92 | – | –
[2] | – | 1.3971 | –
[3] | – | – | 17.49

CCCCO [butan-1-ol] + O=C1CCCCC1
x1 = 1
Conditions | mass density [kg/m3] | refractive index | relative permittivity at zero frequency
[4] | 805.92 | – | –
[5] | – | 1.3971 | –
[6] | – | – | 17.49

C1CCCCC1 [cyclohexane]
Conditions | refractive index | relative permittivity at zero frequency
[2] | 1.4235 | –
[3] | – | 2.021 and 2.02

C1CCCCC1 [cyclohexane] + O=C1CCCC1
x2 = 0
Conditions | refractive index | relative permittivity at zero frequency
[5] | 1.4235 | –
[6] | – | 2.02

C1CCCCC1 [cyclohexane] + O=C1CCCCC1
x2 = 0
Conditions | refractive index | relative permittivity at zero frequency
[5] | 1.4235 | –
[6] | – | 2.021 and 2.02

C1CCCCC1 [cyclohexane] + OC1CCCCC1
x2 = 0
Conditions | refractive index | relative permittivity at zero frequency
[5] | 1.4235 | –
[6] | – | 2.021

OC1CCCCC1 [cyclohexanol]
Conditions | refractive index | relative permittivity at zero frequency
[2] | 1.4646 | –
[3] | – | 15.71

OC1CCCCC1 [cyclohexanol] + C1CCCCC1
Conditions | refractive index, [5] | relative permittivity at zero frequency, [6]
x1 = 0.02 | 1.424 | 2.084
x1 = 0.04 | 1.4245 | 2.151
x1 = 0.05 | 1.4247 | 2.184
x1 = 0.06 | 1.425 | 2.219
x1 = 0.08 | 1.4255 | 2.285
x1 = 0.1 | 1.426 | 2.354

OC1CCCCC1 [cyclohexanol] + O=C1CCCC1
x1 = 1
Conditions | refractive index | relative permittivity at zero frequency
[5] | 1.4646 | –
[6] | – | 15.71

OC1CCCCC1 [cyclohexanol] + O=C1CCCCC1
Conditions | refractive index, [5] | relative permittivity at zero frequency, [6]
x1 = 0.1 | 1.4498 | 15.16
x1 = 0.2 | 1.4512 | 14.63
x1 = 0.3 | 1.4527 | 14.24
x1 = 0.4 | 1.4542 | 13.99
x1 = 0.5 | 1.4558 | 13.91
x1 = 0.6 | 1.4574 | 13.98
x1 = 0.7 | 1.4591 | 14.2
x1 = 0.8 | 1.4608 | 14.57
x1 = 0.9 | 1.4626 | 15.08
x1 = 1 | 1.4646 | 15.71

O=C1CCCCC1 [cyclohexanone]
Conditions | mass density [kg/m3] | refractive index | relative permittivity at zero frequency
[1] | 942.47 | – | –
[2] | – | 1.4485 | –
[3] | – | – | 15.81

O=C1CCCCC1 [cyclohexanone] + C1CCCCC1
Conditions | refractive index, [5] | relative permittivity at zero frequency, [6]
x1 = 0.02 | 1.4239 | 2.189
x1 = 0.04 | 1.4243 | 2.364
x1 = 0.05 | 1.4245 | 2.467
x1 = 0.06 | 1.4247 | 2.563
x1 = 0.08 | 1.4251 | 2.746
x1 = 0.1 | 1.4255 and 1.4254 | 2.932 and 3
x1 = 0.2 | 1.4276 | 4.12
x1 = 0.3 | 1.4298 | 5.35
x1 = 0.4 | 1.4322 | 6.66
x1 = 0.5 | 1.4347 | 8.03
x1 = 0.6 | 1.4372 | 9.45
x1 = 0.7 | 1.4399 | 10.94
x1 = 0.8 | 1.4427 | 12.49
x1 = 0.9 | 1.4456 | 14.11
x1 = 1 | 1.4485 | 15.81

O=C1CCCCC1 [cyclohexanone] + CCCCCCCCCCO
Conditions | mass density, [4] [kg/m3] | refractive index, [5] | relative permittivity at zero frequency, [6]
x2 = 0 | 942.47 | 1.4485 | 15.81
x2 = 0.1 | 922.31 | 1.4458 | 14.59
x2 = 0.2 | 904.8 | 1.4436 | 13.46
x2 = 0.3 | 889.41 | 1.4416 | 12.41
x2 = 0.4 | 875.85 | 1.4399 | 11.44
x2 = 0.5 | 863.79 | 1.4385 | 10.57
x2 = 0.6 | 853.13 | 1.4374 | 9.81
x2 = 0.7 | 843.78 | 1.4364 | 9.15
x2 = 0.8 | 836.26 | 1.4358 | 8.59
x2 = 0.9 | 830.72 | 1.4354 | 8.12

O=C1CCCCC1 [cyclohexanone] + CCCCCCCCO
Conditions | mass density, [4] [kg/m3] | refractive index, [5] | relative permittivity at zero frequency, [6]
x2 = 0 | 942.47 | 1.4485 | 15.81
x2 = 0.1 | 924.71 | 1.4456 | 14.72
x2 = 0.2 | 908.6 | 1.443 | 13.74
x2 = 0.3 | 893.85 | 1.4403 | 12.87
x2 = 0.4 | 880.35 | 1.438 | 12.12
x2 = 0.5 | 867.97 | 1.4358 | 11.47
x2 = 0.6 | 856.69 | 1.4338 | 10.93
x2 = 0.7 | 846.41 | 1.4319 | 10.5
x2 = 0.8 | 837.29 | 1.4303 | 10.18
x2 = 0.9 | 829.11 | 1.4289 | 9.97
